{"source": "patent US5877212A", "about": "(priority 1997, dated 1999)", "key": {"[1]": {"settings": "water; cited from earlier work"}, "[2]": {"type": "physicochemical"}, "[3]": {"settings": "in vivo"}, "[4]": {"settings": "in vivo, pH 4.8"}, "[5]": {"parameters": "species or system human", "settings": "in vivo"}}, "note": "Read-outs that look alike come from different tables or passages of the source.", "data": [{"compound": "O=C(O)C(O)CO", "note": "(racemic) [DL-Glyceric acid, 2,3-dihydroxypropanoic acid]", "values": [{"measurement": "pK1 (pKa)", "setting": "[1]", "result": 3.64}]}, {"compound": "CCC(O)C(=O)O", "note": "(centres unmarked) [2-Hydroxybutanoic acid]", "values": [{"measurement": "pK1 (pKa)", "setting": "[1]", "result": 3.65}]}, {"compound": "O=C(O)C(O)CCl", "note": "(centres unmarked) [3-Chlorolactic acid]", "values": [{"measurement": "pK1 (pKa)", "setting": "[1]", "result": 3.12}]}, {"compound": "CC(O)(C(=O)O)c1ccccc1", "note": "(centres unmarked) [Atrolactic acid, 2-phenyl 2-methyl 2-hydroxyethanoic acid]", "values": [{"measurement": "pK1 (pKa)", "setting": "[1]", "result": 3.53}]}, {"compound": "O=C(O)C(O)C(O)C(O)C(O)CO", "note": "[D-Gluconic acid, 2,3,4,5,6-pentahydroxyhexanoic acid]", "values": [{"measurement": "pK1 (pKa)", "setting": "[1]", "result": 3.86}]}, {"compound": "O=C(O)C(O)C(O)C(O)C(O)C(=O)O", "note": "(centres unmarked) [Glucaric acid, 2,3,4,5-tetrahydroxyhexane-1,6-dioic acid]", "values": [{"measurement": "pK1 (pKa)", "setting": "[1]", "result": 5.00}]}, {"compound": "O=C(O)CO", "note": "[Glycolic acid, 2-hydroxyethanoic acid]", "values": [{"measurement": "anion content (glycolate)", "setting": "[2]; pH 3.2", "result": 2, "unit": "%"}, {"measurement": "free acid content", "setting": "[2]; pH 3.2", "result": 8, "unit": "%"}, {"measurement": "anion content (glycolate)", "setting": "[2]; pH 3.83", "result": 5, "unit": "%"}, {"measurement": "free acid content", "setting": "[2]; pH 3.83", "result": 5, "unit": "%"}]}, {"compound": "C[C@H](O)CC(=O)O", "note": "[L-3-Hydroxybutanoic acid]", "values": [{"measurement": "pK1 (pKa)", "setting": "[1]", "result": 4.41}]}, {"compound": "C[C@H](O)C(=O)O", "note": "[L-Lactic acid, 2-hydroxypropanoic acid]", "values": [{"measurement": "anion content (lactate)", "setting": "[2]; pH 3.86", "result": 5, "unit": "%"}, {"measurement": "free acid content", "setting": "[2]; pH 3.86", "result": 5, "unit": "%"}]}, {"compound": "O=C(O)CC(O)C(=O)O", "note": "(centres unmarked) [Malic acid, 2-hydroxybutane-1,4-dioic acid]", "values": [{"measurement": "pK1 (pKa)", "setting": "[1]", "result": 3.46}, {"measurement": "pK2", "setting": "[1]", "result": 5.10}]}, {"compound": "O=C(O)C(O)c1ccccc1", "note": "(centres unmarked) [Mandelic acid, 2-phenyl 2-hydroxyethanoic acid]", "values": [{"measurement": "pK1 (pKa)", "setting": "[1]", "result": 3.41}]}, {"compound": "CC(C)(O)C(=O)O", "note": "[Methyllactic acid, 2-methyl 2-hydroxypropanoic acid]", "values": [{"measurement": "pK1 (pKa)", "setting": "[1]", "result": 3.72}]}, {"compound": "CC(=O)C(=O)O", "note": "[Pyruvic acid, 2-ketopropanoic acid]", "values": [{"measurement": "pK1 (pKa)", "setting": "[1]", "result": 2.49}]}, {"compound": "O=C(O)C(O)C(=O)O", "note": "[Tartronic acid, 2-hydroxypropane-1,3-dioic acid]", "values": [{"measurement": "pK1 (pKa)", "setting": "[1]", "result": 2.37}, {"measurement": "pK2", "setting": "[1]", "result": 4.74}]}, {"compound": "O=C(O)C(CO)c1ccccc1", "note": "(centres unmarked) [Tropic acid, 2-phenyl-3-hydroxypropanoic acid]", "values": [{"measurement": "pK1 (pKa)", "setting": "[1]", "result": 3.53}]}, {"compound": "Oc1ccc(O)cc1", "note": "[hydroquinone]", "values": [{"measurement": "improvement of pigmented and non-pigmented spots and patches", "setting": "[3]", "result": "improved very slightly"}]}, {"compound": "CC(O)C(=O)O", "note": "(centres unmarked) [lactic acid, 2-hydroxypropanoic acid]", "values": [{"measurement": "anion content (lactate)", "setting": "[2]; pH 4.5", "result": 8, "unit": "%"}, {"measurement": "free acid content", "setting": "[2]; pH 4.5", "result": 2, "unit": "%"}, {"measurement": "skin irritation", "setting": "[4]", "result": "can still irritate sensitive skin or atopic skin"}]}, {"compound": "O=C(O)c1ccccc1O", "note": "[salicylic acid]", "values": [{"measurement": "improvement of acne lesions", "setting": "[5]", "result": "improved slightly"}]}]}
